According to patent US9371335B2, “Spirothienopyran-piperidine derivatives as ORL-1 receptor antagonists for their use in the treatment of alcohol dependence and abuse” (Eli Lilly and Company, priority 2011, dated 2016):
“And” between values parts separate entries of the source, which are not always exact repeats. Equal values may be shown once.

Tests used:
P rats = assay: Free-choice ethanol self-administration in P rats; format: in vivo, rat; details: for Mean EtOH Consumed in g/kg (Drug-treated) / Reduction vs. Vehicle (EtOH consumed): P rats, 12 hr
Source text: Free-Choice Ethanol Self-Administration in Alcohol-Preferring Rats: P Rats:
In this procedure (modified from Rodd-Henricks Z A, McKinzie D L, Shaikh S R, Murphy J M, McBride W J, Lumeng L and Li T K (2000) Alcohol deprivation effect is prolonged in the alcohol preferring (P) rat after repeated deprivations. Alcohol Clin Exp Res 24:8-16), female P rats are obtained from a private colony (Taconic, Germantown, N.Y.), individually-housed with food, 15% ethanol (v/v, in water), and water available ad libitum, and maintained on a 12 hr. light/dark cycle (lights off at 16:00). The chambers are equipped with a force transduction system (TSE Systems, Bad Homburg, Germany) attached to the ethanol, water, and food receptacles to enable continuous monitoring of food and liquid consumption. Rats voluntarily consume 15% ethanol with a mean daily intake of roughly 5 g/kg for several months prior to drug testing. Rats are treated orally with vehicle or test compounds in the dose range of 3, 10, or 30 mg/kg (3 mL/kg dose volume, dissolved in a vehicle consisting of 20% Captisol® in 25 mM phosphate buffer at pH=2), or naltrexone (10 mg/kg, 1 mL/kg dose volume, dissolved in water) immediately prior to the onset of the dark cycle, using a within-subjects, crossover design (3-4 day washout between subsequent doses). In a separate experiment, rats receive oral administration of vehicle followed by 4 daily oral doses of vehicle or 30 mg/kg test compound immediately prior to the onset of the dark cycle, using a between-subjects design.

[1] = system: Alcohol-Preferring (P) rats; assay: Operant ethanol self-administration in P rats (progressive ratio schedule); format: in vivo, rat; details: female P rats, 10 mg/kg oral
Source text: Operant Self-Administration in P rats:
Female P rats are obtained and pair-housed from a private colony (Taconic, Germantown, N.Y.). In order to reduce novelty-induced avoidance of ethanol, the water bottle on the homecage is replaced with a bottle containing 15% ethanol in water (v/v, in water) for two days prior to operant training. Throughout the rest of the experiment, rats receive ad libitum access to water and standard laboratory chow, with no further access to ethanol in the homecage.
Rats are trained to press a lever for ethanol reinforcement in daily 30-min sessions conducted in standard rat operant chambers contained within sound-attenuating chambers (MED Associates, Inc., St. Albans, Vt.). The chambers consist of two stainless steel and two clear Plexiglas walls. The floor grid of the operant chambers consists of 0.5 cm diameter stainless steel bars placed approximately 1.5 cm apart. Each operant chamber contains two retractable operant levers located approximately 6 cm above the grid floor and 13 cm apart. A recessed trough is located in the space between the levers, through which a dipper cup (0.1 mL capacity) is raised to deliver response-contingent ethanol (15%, v/v, in water). Upon a reinforced response, a stimulus light is illuminated above the lever on which the response was made throughout the 4-sec dipper cup access. Operation of the stimuli and behavioral responses are controlled and recorded by personal computer for offline analysis (MED Associates, Inc., St. Albans, Vt.).
During operant training, responses on either lever are considered correct responses and are rewarded with 0.1 mL ethanol reinforcement. […] Once stable baseline responding is reached on an FR-1 schedule of reinforcement, the response contingency is increased to FR-2 and then again to FR-3 so that 3 lever presses are required for each reinforcement. […] Specifically, the response requirement is increased as follows: all rats begin each session at an FR-1 schedule of reinforcement; after three reinforcements, the schedule is increased to FR-2; after three reinforcements at that level, the schedule is increased by two to FR-4; after three reinforcements, the schedule is increased by two to FR-6; and so on (see for e.g. Oster S M, Toalston J E, Kuc K A, Pommer T J, Murphy J M, Lumeng L, Bell R L, McBride W J and Rodd Z A (2006) Effects of multiple alcohol deprivations on operant ethanol self-administration by high-alcohol-drinking replicate rat lines. Alcohol 38:155-164). Each session lasts a total of 30 min, after which, all stimuli are turned off and levers are retracted. […] The amount of ethanol consumed is calculated from the number of active lever presses, and converted into g/kg EtOH consumed. Rats receive oral administration of vehicle or test compound in the dose range of 3, 10, or 30 mg/kg (3 mL/kg dose volume, dissolved in a vehicle consisting of 20% Captisol® in 25 mM phosphate buffer at pH=2), or the nonselective opioid receptor antagonist naltrexone (10 mg/kg) as a positive control, 60 min. prior to the session, using a within-subjects, crossover design (3-4 day washout between subsequent doses). On a separate occasion, rats receive oral administration of vehicle or 30 mg/kg test compound (1 mL/kg dose volume, dissolved in a vehicle consisting of 20% Captisol® in 25 mM phosphate buffer), 30 min prior to the session, using a crossover design.

## Cc1nn(-c2c(F)cccc2F)cc1CN1CCC2(CC1)OCC(F)(F)c1cc(Cl)sc12 [Compound 5, 2-chloro-1′-[[l-(2,6-difluorophenyl)-3-methyl-pyrazol-4-yl]methyl]-4,4-difluoro-spiro[5H-thieno[2,3-c]pyran-7,4′-piperidine]]
P rats; 3 mg/kg oral
  Mean EtOH Consumed in g/kg (Drug-treated): 4.39 g/kg
  Reduction vs. Vehicle (EtOH consumed): 15.0%
P rats; 10 mg/kg oral
  Mean EtOH Consumed in g/kg (Drug-treated): 4.05 g/kg
  Reduction vs. Vehicle (EtOH consumed): 21.5%
P rats; 30 mg/kg oral
  Mean EtOH Consumed in g/kg (Drug-treated): 3.74 g/kg
  Reduction vs. Vehicle (EtOH consumed): 27.6%
P rats; free-choice access, P rats and msP rats, result in words
  ethanol self-administration: significantly reduce ethanol self-administration

## O=C1CC[C@@]2(O)[C@H]3Cc4ccc(O)c5c4[C@@]2(CCN3CC2CC2)[C@H]1O5 [naltrexone, reference compound]
P rats; 10 mg/kg oral, 10 mg/kg
  Mean EtOH Consumed in g/kg (Drug-treated): 3.30 g/kg and 2.83 g/kg and 3.31 g/kg
  Reduction vs. Vehicle (EtOH consumed): 30.2% and 45.0% and 36.0%
[1]
  Reduction vs. Vehicle (lever presses): 75.4%
[1]; 30-min progressive ratio session
  Mean Number of Lever Presses (Drug-treated): 106.33
